Where a name gives a salt, the structure may show the parent alone.
Experiments:
[1] = system: hypothermia induced by apomorphine; experiment: Reversal of apomorphine hypothermia in mice (test E); assay type: in vivo; details: Mus musculus, ip; male CD/l mice, test drug i.p. 30 minutes before apomorphine hydrochloride 16 mg/kg s.c.; rectal temperature 30 minutes later; read-out: ED50 for the reversal of the hypothermia induced by apomorphine HCl in mice (test E)
Protocol: D. Reversal of apomorphine hypothermia in mice
Whereas the reversal of the hypothermia induced in mice by low doses of apomorphine is a characteristic of classical neuroleptic agents, the hypothermia induced by high doses of this agent is specifically reversed by antidepressant drugs [Puech et al., In `Advances in Pharmacology and Therapeutics Vol., 5` ed. Dumont, c. Pergamon p. 171-176 (1979)]. Groups of 10 male CD/l mice (16-22 g) were dosed with vehicle or test drug intraperitoneally 30 minutes prior to the subcutaneously injection of apomorphine hydrochloride at 16 mg/kg. The rectal temperatures were recorded 30 minutes later using a rectal thermometer with digital readout.

[2] = target: Muscarinic chloinergic receptor; assay type: binding; details: [3H] QNB 0.3 nM, rat forebrain membranes, 25° C., 1 hour; read-out: IC50 test D
[3] = target: neuroleptic receptors (frontal cortex membranes, major serotonergic component); experiment: [3H] spiroperidol receptor binding displacement on frontal cortex membranes (test A); details: [3H] spiroperidol 0.19 nM, rat frontal cortex membranes, 37° C., 10 minutes
Excerpt: A. [^3 H] Spiroperidol binding to neuroleptic receptors in membranes prepared from the striatum and frontal cortex of rats
The binding of [^3 H] spiroperidol to frontal cortex membranes appears to entail a major serotonergic component, whereas in striatal membranes the binding is predominantly dopaminergic [Leysen et al, Nature Vol. 272 (1978) p. 168-171] The ability of drugs to displace this radioligand from the frontal cortical receptors matches their activity in other models of serotonergic function, both for agonists and antagonists. Likewise, in striatal membranes, such activities predict the antidopaminergic action of neuroleptic drugs.
[Phenyl-4(n)-^3 H] spiroperidol (Radiochemical Centre, TRK 570 21 Ci/mmol was used as the labelled ligand supplied as a 250 μCi/250 μl solution in ethanol and this solution was diluted 3.2/10,000 in assay buffer and 0.1 ml of this was added to 2 ml of binding assay.
=0.19 nM [^3 H] spiroperidol
The assay buffer was a modified 50 mM Tris HCl buffer with a pH of 7.6 and containing 120 mM of sodium chloride, 5 mM of potassium chloride, 1 mM of magnesium chloride, 2 mM of calcium chloride, 10 μM of pargyline and 0.1% of ascorbic acid.
The membrane preparation involved dissecting the frontal cortices or striata from 4 male CFHB rats according to J. Glowinski et al [Eur. J. Pharmacol., Vol. 49, (1978), P. 201-202]. The frontal cortex was taken as that cortical tissue in `C`, dorsal to a horizontal reference line passing through the point where the olfactory bulbs join the frontal cortex. The animals were killed by cervical dislocation and the dissected tissue was homogenized in 20 volumes of ice cold 0.32 M sucrose with a Teflon/glass homogeniser. The homogenate was centrifuged at 1000 g for 10 minutes and the resulting supernatant was recentrifuged at 30,000 g for 30 minutes. The supernatant was discarded and the pellet was resuspended by homogenization in 30 volumes of ice cold assay buffer.
Non-specific binding was accounted for by the inclusion of 1 μM (+) butaclamol in blank binding assays and this required a stock solution of 20 μM in distilled water. Solutions of displacing compounds were prepared at 20x final assay concentration in distilled water.
Binding assays of 1.3 ml assay buffer, 0.5 ml membrane suspension, 0.1 ml distilled H2 O or drug solutions and 0.1 ml [^3 H] spiroperidol dilution were made up in ice with the [^3 H] spiroperidol being added last and incubated at 37° C. for 10 minutes. The bound ligand was separated by filtration through Whatman GF/C filters under vacuum followed by 2×10 ml rinses of ice cold assay buffer. The filters were dried at 80° C. and counted in 5 ml volumes of ECONOFLUOR (NEN). All binding assays, controls, blanks and each displacer concentration were run in triplicate. The [^3 H] spiroperidol receptor binding displacement results on frontal cortex membranes (test A) and on striatal membranes (test B) are given in Table III below and the results are expressed as IC50 (nM).

α-noradrenergic receptor = experiment: [3H] WB-4101 receptor binding displacement, rat cortical membranes (test C); details: [3H] WB-4101 0.25 nM, 25° C., 15 minutes

Structure (SMILES): CN1CCC2=C(c3ccccc3)c3ccccc3SC2C1.Cl (stereo not drawn) [Example 1, 2-methyl-5-phenyl-1,3,4,10a-tetrahydro-2H-[1]-benzothiopyrano[2,3-c]pyridine hydrochloride]
- ED50 [1]: 30 mg/kg
- IC50 [2]: 14000 nM
- IC50 [3]: 250 nM
- IC50 (α-noradrenergic receptor): 394 nM

Structure (SMILES): CN1CCC2=C(c3ccc(Cl)cc3)c3ccccc3SC2C1 (stereo not drawn) [Example 2]
- ED50 [1]: > 40 mg/kg
- IC50 [2]: > 100000 nM
- IC50 [3]: 602 nM
- IC50 (α-noradrenergic receptor): 692 nM

Structure (SMILES): Cc1ccc(C2=C3CCN(C)CC3Sc3ccccc32)cc1 (stereo not drawn) [Example 3, 2-methyl-5-(4-tolyl)-1,3,4,10a-tetrahydro-2H[1]benzothiopyrano[2,3-c]pyridine]
- ED50 [1]: 20 mg/kg
- IC50 [2]: 73600 nM
- IC50 [3]: 25 nM
- IC50 (α-noradrenergic receptor): 29 nM

Structure (SMILES): COc1ccc(C2=C3CCN(C)CC3Sc3ccccc32)cc1 (stereo not drawn) [Example 4]
- ED50 [1]: 15 mg/kg
- IC50 [2]: 62000 nM
- IC50 [3]: 131 nM
- IC50 (α-noradrenergic receptor): 120 nM

Structure (SMILES): CN1CCC2=C(c3cccc(Cl)c3)c3ccccc3SC2C1 (stereo not drawn) [Example 5]
- ED50 [1]: > 40 mg/kg
- IC50 [2]: 16200 nM
- IC50 [3]: 427 nM
- IC50 (α-noradrenergic receptor): 1950 nM

Structure (SMILES): CN1CCC2=C(c3ccc(N(C)C)cc3)c3ccccc3SC2C1 (stereo not drawn) [Example 6, 2-methyl-5-(4-dimethylaminophenyl)-1,3,4,10a-tetrahydro-2H[1]benzothiopyrano[2,3-c]pyridine]
- IC50 [2]: > 100000 nM
- IC50 [3]: 112 nM
- IC50 (α-noradrenergic receptor): 100 nM

Structure (SMILES): Cc1cccc(C2=C3CCN(C)CC3Sc3ccccc32)c1 (stereo not drawn) [Example 7]
- ED50 [1]: > 40 mg/kg
- IC50 [2]: 8710 nM
- IC50 [3]: 251 nM
- IC50 (α-noradrenergic receptor): 813 nM

Structure (SMILES): CN1CCC2=C(c3ccc(Cl)c(Cl)c3)c3ccccc3SC2C1 (stereo not drawn) [Example 8]
- IC50 [2]: > 100000 nM
- IC50 [3]: 537 nM
- IC50 (α-noradrenergic receptor): 631 nM

Structure (SMILES): CCc1ccc(C2=C3CCN(C)CC3Sc3ccccc32)cc1 (stereo not drawn) [Example 9]
- ED50 [1]: > 40 mg/kg
- IC50 [2]: > 100000 nM
- IC50 [3]: 50 nM
- IC50 (α-noradrenergic receptor): 59 nM

Structure (SMILES): Cc1ccccc1C1=C2CCN(C)CC2Sc2ccccc21 (stereo not drawn) [Example 10]
- ED50 [1]: 80 mg/kg
- IC50 [2]: 8130 nM
- IC50 [3]: 105 nM
- IC50 (α-noradrenergic receptor): 813 nM

Structure (SMILES): CCCOc1ccc(C2=C3CCN(C)CC3Sc3ccccc32)cc1 (stereo not drawn) [Example 11]
- ED50 [1]: 22 mg/kg
- IC50 [2]: > 100000 nM
- IC50 [3]: 1250 nM
- IC50 (α-noradrenergic receptor): 6760 nM

Structure (SMILES): CCN1CCC2=C(c3ccccc3)c3ccccc3SC2C1 (stereo not drawn) [Example 12]
- IC50 [2]: 19000 nM
- IC50 [3]: 398 nM
- IC50 (α-noradrenergic receptor): 502 nM

Structure (SMILES): CN1CCC2=C(c3ccccc3)c3cc(Cl)ccc3SC2C1 (stereo not drawn) [Example 13]
- ED50 [1]: > 40 mg/kg
- IC50 [2]: 47900 nM
- IC50 [3]: 1480 nM
- IC50 (α-noradrenergic receptor): 355 nM

Structure (SMILES): Cc1ccc(C2=C3CCN(C)CC3Sc3ccccc32)cc1C (stereo not drawn) [Example 14]
- ED50 [1]: 30 mg/kg
- IC50 [2]: > 100000 nM
- IC50 [3]: 155 nM
- IC50 (α-noradrenergic receptor): 502 nM

Structure (SMILES): CN1CCC2=C(c3ccc(N)cc3)c3ccccc3SC2C1.Cl (stereo not drawn) [Example 15, 5-(4-aminophenyl)-2-methyl-1,3,4,10a-tetrahydro-2H-[1]benzothiopyrano[2,3-c]pyridine hydrochloride]
- ED50 [1]: 5 mg/kg
- IC50 [2]: 7940 nM
- IC50 [3]: 158 nM
- IC50 (α-noradrenergic receptor): 372 nM

Structure (SMILES): Cc1ccc2c(c1)SC1CN(C)CCC1=C2c1ccccc1 (stereo not drawn) [Example 16]
- IC50 [2]: 29500 nM
- IC50 [3]: 708 nM
- IC50 (α-noradrenergic receptor): 1450 nM

Structure (SMILES): c1ccc(C2=C3CCNCC3Sc3ccccc32)cc1 (stereo not drawn) [Example 17]
- ED50 [1]: 35 mg/kg
- IC50 [2]: 19500 nM
- IC50 [3]: 624 nM
- IC50 (α-noradrenergic receptor): 676 nM

Structure (SMILES): Cc1cccc2c1SC1CN(C)CCC1=C2c1ccccc1 (stereo not drawn) [Example 18]
- ED50 [1]: > 40 mg/kg
- IC50 [2]: 38900 nM
- IC50 [3]: 174 nM
- IC50 (α-noradrenergic receptor): 794 nM

Structure (SMILES): Cc1ccc(C2=C3CCN(C)CC3Sc3ccccc32)c(C)c1 (stereo not drawn) [Example 19, 2-methyl-5-(2,4-dimethylphenyl)-1,3,4,10a-tetrahydro-2H-[1]benzothiopyrano[2,3-c]pyridine hydrochloride]
- IC50 [2]: 42700 nM
- IC50 [3]: 32 nM
- IC50 (α-noradrenergic receptor): 23 nM

Structure (SMILES): CN1CCC2=C(c3ccccc3)c3cccc(Cl)c3SC2C1 (stereo not drawn) [Example 20]
- IC50 [2]: 67800 nM
- IC50 [3]: 304 nM
- IC50 (α-noradrenergic receptor): 1050 nM

Structure (SMILES): CN1CCC2=C(c3ccccc3)c3ccc(Cl)cc3SC2C1 (stereo not drawn) [Example 21]
- ED50 [1]: > 100 mg/kg
- IC50 [2]: 58900 nM
- IC50 [3]: 1140 nM
- IC50 (α-noradrenergic receptor): 3020 nM

Structure (SMILES): Cc1ccc2c(c1)C(c1ccccc1)=C1CCN(C)CC1S2 (stereo not drawn) [Example 22]
- ED50 [1]: > 100 mg/kg
- IC50 [2]: > 100000 nM
- IC50 [3]: 2450 nM
- IC50 (α-noradrenergic receptor): 12500 nM

Structure (SMILES): Cc1cccc(C)c1C1=C2CCN(C)CC2Sc2ccccc21 (stereo not drawn) [Example 23]
- ED50 [1]: > 40 mg/kg
- IC50 [2]: 4370 nM
- IC50 [3]: 331 nM
- IC50 (α-noradrenergic receptor): 617 nM

Structure (SMILES): Cc1cc(C)c(C2=C3CCN(C)CC3Sc3ccccc32)c(C)c1 (stereo not drawn) [Example 24]
- ED50 [1]: > 40 mg/kg
- IC50 [2]: 1180 nM
- IC50 [3]: 308 nM
- IC50 (α-noradrenergic receptor): 617 nM

From US4350697A, “Antidepressant and neuroleptic benzothiopyrano [2,3-c]-pyridines” (Roussel Uclaf, priority 1980, dated 1982)
